This is an account of results in patent publication US6025376A, “Chiral methylphenyloxazolidinones” (Schering Aktiengesellschaft, priority 1995, dated 2000).

Structures are written as SMILES.

In assay [1] the target is 3H-Rolipram bond in brain homogenates. Description: Displacement of radiolabeled Rolipram in brain homogenates. The class given is binding. As to conditions: calculated from IC50: Ki = IC50/[1+(L/KD)]. As to the method:
The action of the enantiomers on the central nervous system was studied in vitro by examining their capacity to displace radiolabeled Rolipram in brain homogenates (Europ. Journ. of Pharmac. Vol. 127, 105-115 (1986)). The IC50 values (the concentration at which 50% inhibition action occurs) were converted to inhibition constant Ki, which is calculated according to the following formula: […]
in which L means the concentration of the radioactive tracer and KD means the dissociation constant of the ^3 H-Rolipram bond, which is determined separately.

The subject of assay [2] is TNF-α release. The assay can be described thus: Inhibition of LPS-stimulated TNF-α release from macrophage cell line RAW 264 (Elisa). The class given is cell-based, murine. The following applies: Mus musculus, RAW264.7, 30 min preincubation, LPS 10 ng/ml, 18 hours. As to the method: A murine macrophage cell line (RAW 264) was preincubated for 30 minutes in the presence and in the absence of various concentrations of PDE-IV inhibitors and then stimulated with LPS (10 ng/ml). 18 hours after stimulation, the culture medium was removed, and the TNF-α release was measured with a specific Elisa test. The test can be obtained from various companies, i.a., from the British biotechnology company Genzyme, and it is carried out as the manufacturer describes.

The subject of assay [3] is phosphodiesterase type IV (PDE IV). Description: Grooming reaction in rats (characteristic of PDE IV inhibitors). The class given is in vivo, male Wistar rats. As to conditions: observed 15-75 minutes after injection, MED = lowest dose with statistically significant effect. As to the method:
(§1) The improved effectiveness of the new chiral methylphenyloxazolidinone derivatives in comparison with the racemate can be shown based on the head twitch and grooming reactions in rats that are characteristic of phosphodiesterase type IV (PDE IV) inhibitors. The racemate and the appropriate enantiomers were administered intraperitoneally (i.p.) to male Wistar rats and the occurrence of head twitches and grooming for 15-75 minutes after injection was detected by observation.
(§2) MED: Minimum effective dose, i.e., the lowest dose that ensures a statistically significant effect.

Assay [4] shares this test system. Description: Head-twitch test in rats (characteristic of PDE IV inhibitors). The following applies: observed 15-75 minutes after injection, MED = lowest dose with statistically significant effect. The class given is in vivo, male Wistar rats. How it is done:
as §1, §2

A word on the Ki: it is a measure of affinity in units of concentration, obtained from inhibition or displacement. As for `CCOc1cc([C@]2(C)CNC(=O)O2)ccc1OC` [Ethyl- (R)-(-)-Isomer, (R)-(-)-5-(3-Ethoxy-4-methoxyphenyl)-5-methyl-2-oxazolidinone], the Ki in assay [1] was 0.33 nM.

In general, IC50 refers to the concentration that gives 50% inhibition. A high value points to weaker potency in that assay. Compound `CCCOc1cc(C2(C)CNC(=O)O2)ccc1OC` (racemic) [(RS) - 2, (R,S)-5-(4-Methoxy-3-propoxyphenyl)-5-methyl-2-oxazolidinone] showed an IC50 in assay [2] of 500 nM. The Ki in assay [1] is 0.61 nM.

The compound `CCCOc1cc([C@@]2(C)CNC(=O)O2)ccc1OC` [(S) - (+) - 2, (S)-(+)-5-(4-Methoxy-3-propoxyphenyl)-5-methyl-2-oxazolidinone] displayed an IC50 in assay [2] of 2500 nM. Further, in assay [1], the Ki was 16 nM.

For `CCOc1cc(C2(C)CNC(=O)O2)ccc1OC` (racemic) [Ethyl- Racemate, (R,S)-5-(3-Ethoxy-4-methoxyphenyl)-5-methyl-2-oxazolidinone], the Ki in assay [1] is 0.68 nM.

Turning to `COc1ccc([C@]2(C)CNC(=O)O2)cc1OC1CCCC1` [(R) - (-) - 1, (R)-(-)-5-(3-Cyclopentyloxy-4-methoxyphenyl)-5-methyl-2-oxazolidinone], in assay [3], the “Grooming MED i.p.” value stood at 0.1 mg/kg. Moreover, in assay [1], the Ki is 0.34 nM. Moreover, the “Head-Twitch Test MED i.p.” value in assay [4] is 0.39 mg/kg.

Compound `CCCOc1cc([C@]2(C)CNC(=O)O2)ccc1OC` [(R) - (-) - 2, (R)-(-)-5-(4-Methoxy-3-propoxyphenyl)-5-methyl-2-oxazolidinone] had an IC50 in assay [2] of 250 nM. The Ki in assay [1] was 0.24 nM.

Consider `COc1ccc(C2(C)CNC(=O)O2)cc1OC1CCCC1` (racemic) [(R,S) - 1, (R,S)-5-(3-Cyclopentyloxy-4-methoxyphenyl)-5-methyl-2-oxazolidinone], for which the “Grooming MED i.p.” value in assay [3] came out at 0.1 mg/kg. Further, in assay [1], the Ki was 0.57 nM. Also, the “Head-Twitch Test MED i.p.” value in assay [4] is reported as 1.56 mg/kg.

As for `COc1ccc([C@@]2(C)CNC(=O)O2)cc1OC1CCCC1` [(S) - (+) - 1, (S)-(+)-5-(3-Cyclopentyloxy-4-methoxyphenyl)-5-methyl-2-oxazolidinone], the “Grooming MED i.p.” value in assay [3] came out at 6.25 mg/kg. The inhibition constant Ki in assay [1] is 3 nM. Moreover, the “Head-Twitch Test MED i.p.” value in assay [4] was 6.25 mg/kg.

Turning to `CCOc1cc([C@@]2(C)CNC(=O)O2)ccc1OC` [Ethyl- (S)-(+)-Isomer, (S)-(+)-5-(3-Ethoxy-4-methoxyphenyl)-5-methyl-2-oxazolidinone], in assay [1], the Ki was 20 nM.
